Test results as given in ChEMBL document CHEMBL1150972, “Biochemical and cellular effects of c-Src kinase-selective pyrido[2, 3-d]pyrimidine tyrosine kinase inhibitors” (Biochem Pharmacol, 2000).

Columns and labels:
[1] = target: Fibroblast growth factor receptor 1 (Homo sapiens, UniProt P11362); experiment: Inhibition of bFGFR
[2] = target: Epidermal growth factor receptor (Homo sapiens, UniProt P00533)
SW-620 [3] = experiment: Inhibition of SW-620 cell proliferation; type: functional, cell-based; settings: Homo sapiens
HT-29 [4] = experiment: Inhibition of HT-29 cell proliferation; type: functional, cell-based; settings: Homo sapiens
A-431 = experiment: Inhibition of 3H-thymidine incorporation into A-431 cells; type: functional, cell-based; settings: Homo sapiens
HT-29 [5] = experiment: Inhibition of HT-29 clonogenic growth in soft agar without pretreatment; type: functional, cell-based; settings: Homo sapiens
HCT-8 [6] = experiment: Inhibition of HCT-8 cell proliferation; type: functional, cell-based; settings: Homo sapiens
HCT-8 [7] = experiment: Inhibition of HCT-8 clonogenic growth in soft agar with pretreatment; type: functional, cell-based; settings: Homo sapiens
Homo sapiens [8] = species on record: Homo sapiens; experiment: Selectivity for c-Src compared to bFGFR
[9] = target: Tyrosine-protein kinase Lck (Homo sapiens, UniProt P06239); experiment: Inhibition of Lck
Sequence of Tyrosine-protein kinase Lck (P06239 whole entry): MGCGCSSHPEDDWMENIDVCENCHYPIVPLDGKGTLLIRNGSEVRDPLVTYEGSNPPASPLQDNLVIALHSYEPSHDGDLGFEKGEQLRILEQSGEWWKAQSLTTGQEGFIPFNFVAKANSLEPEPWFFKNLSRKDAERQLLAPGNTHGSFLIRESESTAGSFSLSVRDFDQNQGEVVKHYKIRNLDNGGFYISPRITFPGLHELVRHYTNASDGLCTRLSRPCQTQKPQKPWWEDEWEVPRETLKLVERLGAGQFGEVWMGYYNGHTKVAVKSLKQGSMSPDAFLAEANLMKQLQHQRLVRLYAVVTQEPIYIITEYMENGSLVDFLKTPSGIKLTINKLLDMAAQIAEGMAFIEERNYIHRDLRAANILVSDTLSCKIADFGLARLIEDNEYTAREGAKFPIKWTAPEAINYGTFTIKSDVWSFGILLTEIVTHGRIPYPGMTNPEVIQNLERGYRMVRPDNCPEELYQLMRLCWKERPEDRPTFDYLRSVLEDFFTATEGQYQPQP

NIH3T3 = experiment: Inhibition of 3H-thymidine incorporation into NIH3T3 cells; type: functional, cell-based; settings: Mus musculus
Homo sapiens [10] = species on record: Homo sapiens; experiment: Selectivity for c-Src compared to PDGFR
[11] = target: Proto-oncogene tyrosine-protein kinase Src (Homo sapiens, UniProt P12931); experiment: Inhibition of c-Src
Sequence of Proto-oncogene tyrosine-protein kinase Src (P12931 2-536 limits assumed): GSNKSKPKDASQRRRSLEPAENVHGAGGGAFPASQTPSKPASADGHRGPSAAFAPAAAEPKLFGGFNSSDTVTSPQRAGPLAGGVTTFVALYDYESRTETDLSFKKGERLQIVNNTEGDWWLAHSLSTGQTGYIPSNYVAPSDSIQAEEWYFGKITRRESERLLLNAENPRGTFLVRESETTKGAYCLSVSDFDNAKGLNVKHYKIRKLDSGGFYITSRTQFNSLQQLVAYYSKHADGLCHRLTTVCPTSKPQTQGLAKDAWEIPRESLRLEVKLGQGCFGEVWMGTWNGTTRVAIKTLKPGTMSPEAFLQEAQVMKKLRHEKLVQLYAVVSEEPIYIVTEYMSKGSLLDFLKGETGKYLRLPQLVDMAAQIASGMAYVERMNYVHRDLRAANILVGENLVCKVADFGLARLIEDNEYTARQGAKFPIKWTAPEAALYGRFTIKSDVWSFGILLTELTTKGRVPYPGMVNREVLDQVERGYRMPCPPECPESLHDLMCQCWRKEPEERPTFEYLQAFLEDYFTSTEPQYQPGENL

HCT-8 [12] = experiment: Inhibition of HCT-8 clonogenic growth in soft agar without pretreatment; type: functional, cell-based; settings: Homo sapiens
HT-29 [13] = experiment: Inhibition of HT-29 clonogenic growth in soft agar with pretreatment; type: functional, cell-based; settings: Homo sapiens
[14] = target: Platelet-derived growth factor receptor (Homo sapiens, UniProt P09619+P16234); experiment: Inhibition of PDGFR; type: protein-complex assay
SW-620 [15] = experiment: Inhibition of SW-620 clonogenic growth in soft agar with pretreatment; type: functional, cell-based; settings: Homo sapiens
SW-620 [16] = experiment: Inhibition of SW-620 clonogenic growth in soft agar without pretreatment; type: functional, cell-based; settings: Homo sapiens

Sequence of Fibroblast growth factor receptor 1 (P11362 whole entry): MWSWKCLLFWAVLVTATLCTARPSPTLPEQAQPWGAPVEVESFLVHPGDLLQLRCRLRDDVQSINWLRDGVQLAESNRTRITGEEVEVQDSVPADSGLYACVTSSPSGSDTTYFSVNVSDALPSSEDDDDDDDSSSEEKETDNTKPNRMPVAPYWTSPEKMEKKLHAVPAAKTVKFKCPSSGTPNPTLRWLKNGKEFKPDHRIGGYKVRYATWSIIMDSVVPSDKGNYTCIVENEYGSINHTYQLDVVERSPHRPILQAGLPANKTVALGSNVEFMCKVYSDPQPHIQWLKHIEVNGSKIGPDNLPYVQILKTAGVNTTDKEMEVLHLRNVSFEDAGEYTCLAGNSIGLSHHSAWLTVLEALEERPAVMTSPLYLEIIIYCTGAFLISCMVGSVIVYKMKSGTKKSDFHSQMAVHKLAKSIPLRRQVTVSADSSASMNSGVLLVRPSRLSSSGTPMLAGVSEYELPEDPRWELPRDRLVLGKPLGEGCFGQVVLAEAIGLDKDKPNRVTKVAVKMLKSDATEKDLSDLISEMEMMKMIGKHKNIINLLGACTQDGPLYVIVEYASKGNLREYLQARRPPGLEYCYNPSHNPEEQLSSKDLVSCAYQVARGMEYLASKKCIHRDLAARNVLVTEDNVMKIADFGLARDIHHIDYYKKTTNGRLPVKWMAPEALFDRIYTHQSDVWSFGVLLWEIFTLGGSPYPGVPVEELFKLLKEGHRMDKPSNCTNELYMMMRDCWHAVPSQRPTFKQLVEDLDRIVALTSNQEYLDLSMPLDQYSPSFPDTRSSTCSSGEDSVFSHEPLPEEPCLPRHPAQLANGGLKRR
Sequence of Epidermal growth factor receptor (P00533 whole entry): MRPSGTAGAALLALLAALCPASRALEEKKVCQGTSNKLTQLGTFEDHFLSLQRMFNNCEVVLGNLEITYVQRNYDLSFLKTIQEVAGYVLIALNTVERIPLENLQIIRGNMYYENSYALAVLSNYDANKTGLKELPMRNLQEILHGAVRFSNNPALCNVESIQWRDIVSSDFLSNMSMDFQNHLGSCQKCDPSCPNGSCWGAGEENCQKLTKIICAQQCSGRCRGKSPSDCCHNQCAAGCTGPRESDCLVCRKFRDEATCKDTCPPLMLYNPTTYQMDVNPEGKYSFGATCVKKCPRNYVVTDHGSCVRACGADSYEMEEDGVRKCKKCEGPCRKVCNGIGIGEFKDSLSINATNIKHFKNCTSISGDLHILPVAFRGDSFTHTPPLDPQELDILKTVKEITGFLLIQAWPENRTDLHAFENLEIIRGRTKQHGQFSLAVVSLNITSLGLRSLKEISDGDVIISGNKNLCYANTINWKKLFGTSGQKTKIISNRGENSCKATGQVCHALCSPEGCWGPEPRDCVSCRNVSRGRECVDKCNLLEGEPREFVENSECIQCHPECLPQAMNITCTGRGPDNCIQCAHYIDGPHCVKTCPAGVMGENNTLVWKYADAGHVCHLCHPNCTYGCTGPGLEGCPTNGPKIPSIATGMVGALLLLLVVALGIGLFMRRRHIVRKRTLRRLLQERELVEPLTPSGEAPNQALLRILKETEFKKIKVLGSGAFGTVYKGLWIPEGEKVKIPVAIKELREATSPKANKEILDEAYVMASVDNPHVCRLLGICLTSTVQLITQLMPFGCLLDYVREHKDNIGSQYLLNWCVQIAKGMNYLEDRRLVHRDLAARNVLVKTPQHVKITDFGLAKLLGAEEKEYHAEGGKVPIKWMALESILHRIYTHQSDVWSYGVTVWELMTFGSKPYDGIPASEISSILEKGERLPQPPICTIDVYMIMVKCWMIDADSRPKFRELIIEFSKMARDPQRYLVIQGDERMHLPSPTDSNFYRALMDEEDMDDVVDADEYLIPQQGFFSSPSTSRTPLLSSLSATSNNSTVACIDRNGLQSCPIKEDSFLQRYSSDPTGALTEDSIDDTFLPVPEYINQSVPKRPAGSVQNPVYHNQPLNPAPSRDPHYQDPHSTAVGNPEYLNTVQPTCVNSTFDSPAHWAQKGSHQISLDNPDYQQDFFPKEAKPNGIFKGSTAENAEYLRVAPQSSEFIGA

Row | IC50 [1] [nM] | IC50 [2] [nM] | IC50 (SW-620 [3]) [nM] | IC50 (HT-29 [4]) [nM] | IC50 (A-431) [nM] | IC50 (HT-29 [5]) [nM] | IC50 (HCT-8 [6]) [nM] | IC50 (HCT-8 [7]) [nM] | Ratio (Homo sapiens [8]) | IC50 [9] [nM] | Ratio (Homo sapiens [10]) | IC50 [11] [nM] | IC50 (HCT-8 [12]) [nM] | IC50 (HT-29 [13]) [nM] | IC50 [14] [nM] | IC50 (SW-620 [15]) [nM] | IC50 (SW-620 [16]) [nM] | Structure (SMILES) | IC50 (NIH3T3) [nM]
1 | 934 | 390 | 285 | 461 | 215 | 1520 | 450 | 610 | 55.6 | < 5 | 84.9 | 16.8 | 260 | 464 | 1430 |  |  | Cc1cc(Nc2ncc3cc(-c4c(Cl)cccc4Cl)c(=O)n(C)c3n2)ccc1F | 170
2 | 451 |  | 660 | 579 | 445 | 1010 | 1150 | 3220 | 27.7 | < 5 | 144 | 16.3 | 1260 | 750 | 2340 | 460 | 360 | CCOc1ccc(Nc2ncc3cc(-c4c(Cl)cccc4Cl)c(=O)n(C)c3n2)cc1 | 382
3 | 1250 |  | 924 | 810 |  | 1290 | 1130 | 2520 |  | < 5 |  |  | 1300 | 1210 |  | 1130 | 980 | CSc1cccc(Nc2ncc3cc(-c4c(Cl)cccc4Cl)c(=O)n(C)c3n2)c1 | 
4 |  |  | 619 | 617 |  | 1540 | 662 |  |  | < 5 |  |  | 1150 | 1530 |  | 1550 | 402 | Cn1c(=O)c(-c2c(Cl)cccc2Cl)cc2cnc(Nc3ccc(F)cc3)nc21 | 
5 | 244 |  | 156 | 266 |  | < 5000 | 1000 | > 5000 | 27 | < 5 | 51.2 | 9.03 | > 5000 | 1740 | 463 |  |  | CCN(CCOc1ccc(Nc2ncc3cc(-c4c(Cl)cccc4Cl)c(=O)n(C)c3n2)cc1)C(C)=O | 

Row | Structure (SMILES) | IC50 [1] [nM] | IC50 [2] [nM] | IC50 (SW-620 [3]) [nM] | IC50 (HT-29 [4]) [nM] | IC50 (A-431) [nM] | IC50 (HT-29 [5]) [nM] | IC50 (HCT-8 [6]) [nM] | IC50 (HCT-8 [7]) [nM] | Ratio (Homo sapiens [8]) | IC50 [9] [nM] | Ratio (Homo sapiens [10]) | IC50 [11] [nM] | IC50 (HCT-8 [12]) [nM] | IC50 (HT-29 [13]) [nM] | IC50 [14] [nM] | IC50 (SW-620 [15]) [nM] | IC50 (SW-620 [16]) [nM] | IC50 (NIH3T3) [nM]
6 | Cn1c(=O)c(-c2c(Cl)cccc2Cl)cc2cnc(Nc3ccc(N4CCOCC4)cc3)nc21 | 98.8 |  |  |  | 245 | 1370 |  | 1380 | 11.8 | < 5 | 76.2 | 8.35 | 1260 | 1210 | 636 | 530 | 470 | 170
